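Results reflect a 48-hour exposure of cells in 96-well plates to compound at five concentrations. GI50: concentration for 50% inhibition of growth. TGI denotes the concentration required for complete inhibition of growth.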
How the values were obtained:
Experiment in all cases: DTP human tumour cell line panel, 48 h
A549 NSCLC = system: A549 NSCLC
ACHN renal = system: ACHN renal
COLO 205 colon = system: COLO 205 colon
HOP-92 NSCLC = system: HOP-92 NSCLC
K-562 leukemia = system: K-562 leukemia
NCI-H522 lung = system: NCI-H522 lung
OVCAR-4 ovarian = system: OVCAR-4 ovarian
PC-3 prostate = system: PC-3 prostate
SF-295 CNS = system: SF-295 CNS
SK-MEL-5 melanoma = system: SK-MEL-5 melanoma

Compound	TGI (A549 NSCLC) [µM]	TGI (ACHN renal) [µM]	TGI (COLO 205 colon) [µM]	TGI (HOP-92 NSCLC) [µM]	TGI (K-562 leukemia) [µM]	TGI (NCI-H522 lung) [µM]	TGI (OVCAR-4 ovarian) [µM]	TGI (PC-3 prostate) [µM]	TGI (SF-295 CNS) [µM]	TGI (SK-MEL-5 melanoma) [µM]	GI50 (HOP-92 NSCLC) [µM]	GI50 (K-562 leukemia) [µM]	GI50 (ACHN renal) [nM]	GI50 (COLO 205 colon) [nM]	GI50 (NCI-H522 lung) [nM]	GI50 (OVCAR-4 ovarian) [nM]	GI50 (PC-3 prostate) [nM]	GI50 (SF-295 CNS) [nM]	GI50 (SK-MEL-5 melanoma) [nM]
O=C(N/N=C(/COc1ccccc1Cl)N=Cc1ccncc1)c1ccncc1	> 100	> 100	> 100	> 100	> 100	> 100	> 100	> 100	> 100	–	–	–	–	–	–	–	–	–	–
Cc1c(O)c(OC2OC(CO)C(O)C(O)C2O)cc2c1C=C[C@@H]1[C@@]2(C)C(=O)C[C@]2(C)[C@@H]([C@@](C)(O)C(=O)CCC(C)(C)O)[C@H](O)C[C@@]12C (stereo partly specified)	83	36.2	> 100	40.8	> 100	67.2	> 100	44.5	36	43.6	–	–	–	–	–	–	–	–	–
CN(C)CC1CCC/C(=C\c2ccc(OC(=O)/C=C/c3ccc(Cl)c(Cl)c3)cc2)C1=O (stereo unspecified)	24.4	3.46	3.93	4.27	> 100	8.28	> 60.3	13.2	26.2	12.2	–	–	–	–	–	–	–	–	–
CC1=CCC[C@H]2[C@](C)(CC3=CC(=O)C(Sc4ccccc4)=CC3=O)[C@@H](C)CC[C@]12C	33.3	35.3	29.5	31.9	41.2	–	43.7	82	32.9	30.9	16.8	19.5	–	–	–	–	–	–	–
COc1ccc(N=C2C(=Nc3ccc(OC)cc3)N(c3ccc(N(C)C)cc3)C(=S)N2c2ccc(OC)cc2)cc1	> 100	> 100	> 100	> 100	> 100	> 100	> 100	> 100	–	> 100	–	–	–	–	–	–	–	–	–
COC1=C2C=[N+](C)C3C(=C2C=CC1OC)Cc1cc2c(cc13)OCO2 (stereo unspecified)	32.4	–	18.4	49.3	42.5	21.4	22.3	39.3	29	23.2	–	–	–	–	–	–	–	–	–
CCOC(=O)C(=CN1CCNC1=S)C(=O)OCC	> 100	> 100	> 100	> 100	> 100	> 100	> 100	> 100	> 100	> 100	> 100	–	–	–	–	–	–	–	–
CCOC(=O)c1[nH]c2cccc3c2c1CC[C@H](NC(=O)C(F)(F)F)C3=O	> 100	–	> 100	69.4	> 100	–	80.5	> 100	72.4	> 100	–	–	–	–	–	–	–	–	–
CCCCCN(CCCCC)CC(C)(C)C(O)c1ccc(OC)c2ccccc12 (stereo unspecified)	21.1	27.2	40.6	12.7	25	20.3	27.9	26.4	29.7	12.8	–	–	–	–	–	–	–	–	–
COC(=O)c1cccc(OC)c1C#Cc1c(OC)cccc1OC	> 100	> 100	> 100	> 100	> 100	> 100	> 100	> 100	> 100	> 100	–	–	–	–	–	–	–	–	–
Cn1ccnc1CCc1ccc(Cl)c(Cl)c1	> 100	> 100	> 100	> 100	> 100	> 100	> 100	–	> 100	> 100	–	–	–	–	–	–	–	–	–
O=C(O)CNC(=O)c1ccc2cc(C(=O)N3CC(CCl)c4ccc([N+](=O)[O-])cc43)[nH]c2c1 (stereo unspecified)	> 100	> 100	> 100	> 100	–	> 100	> 100	> 100	> 100	> 100	–	–	–	–	–	–	–	–	–
CC12CCC(C(=Nc3cc(C(F)(F)F)cc(C(F)(F)F)c3)C1=O)C2(C)C (stereo unspecified)	> 100	> 100	34.1	–	> 100	–	> 100	> 100	> 100	> 100	–	–	–	–	–	–	–	–	–
COC([C@@H](OC(=O)c1ccccc1)[C@H](OC(=O)c1ccccc1)C(O)COC(=O)c1ccccc1)n1cc(C)c(=O)[nH]c1=O (stereo partly specified)	> 100	> 100	51.9	–	> 100	> 100	82.4	> 100	78.7	24	–	–	–	–	–	–	–	–	–
CCCCCCCCCCCCCCCCCC(=O)Nc1ccn(C2CCC(COP(=O)(O)O)O2)c(=O)n1 (stereo unspecified)	> 100	> 100	> 100	> 100	> 100	> 100	> 100	> 100	> 100	> 100	–	–	–	–	–	–	–	–	–
O=[N+]([O-])c1ccc([N+]2=NC(c3ccccc3)=NN(c3ccccc3)C2)cc1	> 100	> 100	> 100	> 100	> 100	> 100	> 100	–	> 100	> 100	–	–	–	–	–	–	–	–	–
Cc1ccc(S(=O)(=O)N/N=C2/CCC(C(C)(C)C)CC2Br)cc1 (stereo unspecified)	> 100	> 100	> 100	72.3	40.1	35.3	33.6	86.5	> 100	29.5	–	–	–	–	–	–	–	–	–
CN(Cc1cnc2nc(N)nc(N)c2n1)c1ccc(C(=O)NC(CCC(=O)NC(CC(P(=O)(O)O)P(=O)(O)O)C(=O)O)C(=O)O)cc1 (stereo unspecified)	> 100	> 100	> 100	> 100	–	> 100	> 100	> 100	> 100	> 100	–	–	–	–	–	–	–	–	–
COCC12CCC(OC)C34C5CC6(O)C(OC)CC(OC(C)=O)(C5C6OC(=O)c5ccccc5)C(C(OC)C13)C4N(C)C2 (stereo unspecified)	> 100	> 100	> 100	> 100	–	> 100	> 100	> 100	> 100	> 100	–	–	–	–	–	–	–	–	–
NC(CC(O)(c1ccccc1)c1ccccc1)c1ccccc1S (stereo unspecified)	29.5	27.3	32	–	37.2	30.3	29.7	24.2	31.4	25.6	–	–	–	–	–	–	–	–	–
Clc1ccc(C2CC(c3cccc(Nc4ccncc4)c3)=NN2c2cc(Cl)cc(Cl)c2)cc1 (stereo unspecified)	–	2.98	4.62	2.99	6.12	3.79	3.39	3.29	3.23	3.38	1.51	2.55	1610	2140	1860	1800	1690	1760	1830
CC(C)(C)OC(=O)N1[C@@H]2Cc3ccc(N)cc3[C@@]1(C)c1ccccc12	> 100	> 100	–	52.3	62.6	38.4	> 100	> 100	> 100	12.4	–	–	–	–	–	–	–	–	–

Compound	TGI (A549 NSCLC) [µM]	TGI (ACHN renal) [µM]	TGI (COLO 205 colon) [µM]	TGI (HOP-92 NSCLC) [µM]	TGI (K-562 leukemia) [µM]	TGI (NCI-H522 lung) [µM]	TGI (OVCAR-4 ovarian) [µM]	TGI (PC-3 prostate) [µM]	TGI (SF-295 CNS) [µM]	TGI (SK-MEL-5 melanoma) [µM]	GI50 (HOP-92 NSCLC) [µM]	GI50 (K-562 leukemia) [µM]	GI50 (ACHN renal) [nM]	GI50 (COLO 205 colon) [nM]	GI50 (NCI-H522 lung) [nM]	GI50 (OVCAR-4 ovarian) [nM]	GI50 (PC-3 prostate) [nM]	GI50 (SF-295 CNS) [nM]	GI50 (SK-MEL-5 melanoma) [nM]
O=C1CS[C@@](CC(c2ccc(Cl)cc2)c2ccc(Cl)cc2)(c2ccc(Cl)cc2)N1	> 100	89.4	17.9	75	> 100	> 100	> 100	65.5	47.5	34.6	–	–	–	–	–	–	–	–	–
COc1ccc(CNc2nc3cc(C(F)(F)F)ccc3nc2-c2ccccc2)cc1OC	> 100	> 100	> 100	–	> 100	> 100	> 100	> 100	> 100	42.4	–	–	–	–	–	–	–	–	–
CN(C)CCNC(=O)c1ccc(Cl)c2cc3ccccc3nc12	3.08	12.1	1.64	2.2	12.3	2.07	3.34	2.6	4.33	2.44	–	–	–	–	–	–	–	–	–
CCOC(=O)CCC(NC(=O)Cc1ccc(Oc2nc3ccccc3nc2-c2ccccc2)cc1)C(=O)OCC (stereo unspecified)	> 100	> 100	> 100	–	> 100	> 100	> 100	> 100	> 100	> 100	–	–	–	–	–	–	–	–	–
Cc1c2ccccc2c(C)n2c1nc1ccccc12	23.2	45.5	–	45.2	> 100	–	–	25.2	25.3	16	–	–	–	–	–	–	–	–	–
CC(=O)Oc1cc(OC(C)=O)c2c(C)cc(=O)oc2c1	> 100	> 100	> 100	–	> 100	–	> 100	> 100	> 100	> 100	–	–	–	–	–	–	–	–	–
CCOc1ccc(/C=C2\NC(=S)N(/C=C3\C(=O)Oc4ccccc4C3=O)C2=O)cc1	–	56.3	43.4	53.4	–	51.2	66.5	42.3	49.8	41.5	–	–	–	–	–	–	–	–	–
c1csc(-c2ccsc2-c2ccsc2)c1	> 100	> 100	> 100	> 100	> 100	–	> 100	> 100	> 100	> 100	–	–	–	–	–	–	–	–	–
COc1ccc2[nH]c(C(=O)N3CC(CCl)c4c3cc(N)c3ccccc43)cc2c1 (stereo unspecified)	–	–	< 0.0167	–	> 100	–	< 0.01	0.0447	< 0.0172	< 0.0112	–	–	–	–	–	–	–	–	–
N[C@H](CCC(=O)NCP(=O)(O)O)C(=O)O	> 100	> 100	> 100	–	> 100	> 100	–	> 100	> 100	> 100	–	–	–	–	–	–	–	–	–
Cc1cc(O)cc(O)c1C(=O)O[C@]1(C)C(=O)C=C2C=C(/C=C/C(=O)O)OC=C2C1=O	> 100	> 100	> 100	> 100	> 100	–	> 100	> 100	> 100	> 100	–	–	–	–	–	–	–	–	–
COC(=O)c1ccccc1C1=C([N+](=O)[O-])C(c2ccccc2)C(C#N)=C(N)O1 (stereo unspecified)	> 100	> 100	> 100	> 100	> 100	30.8	–	> 100	> 100	> 100	–	–	–	–	–	–	–	–	–
C[n+]1c2ccccc2c(/C=N\NS(=O)(=O)c2ccc(Cl)cc2)c2ccccc21	> 100	> 100	–	> 100	> 100	> 100	> 100	–	> 100	> 100	–	–	–	–	–	–	–	–	–
Cc1ccc(S(=O)(=O)n2ccc(-c3ccc4ccn(S(=O)(=O)c5ccc(C)cc5)c4c3)c2)cc1	> 100	> 100	> 100	–	> 100	> 100	> 100	> 100	> 100	> 100	–	–	–	–	–	–	–	–	–
O=C(O)CCc1ccc2c(c1)CC1(Cc3ccccc3C1)C2	> 100	> 100	> 100	> 100	–	> 100	> 100	> 100	> 100	> 100	–	–	–	–	–	–	–	–	–
NC(=Nc1ccccc1)c1ccccc1N	> 100	> 100	> 100	> 100	> 100	–	> 100	> 100	> 100	> 100	–	–	–	–	–	–	–	–	–
Nc1ccc2ccc(-c3ccc[nH]3)nc2n1	> 100	> 100	> 100	> 100	–	> 100	> 100	> 100	> 100	> 100	–	–	–	–	–	–	–	–	–
CCOC(=O)C(=O)CC(=O)C1=C(c2ccccc2OC)CC(c2cccs2)=CC1=O	> 100	> 100	> 100	> 100	> 100	> 100	–	> 100	> 100	> 100	–	–	–	–	–	–	–	–	–
CCC(=O)/C(=C\I)c1ccccc1	37	–	3.59	4.27	> 100	–	–	9.34	33.4	–	–	–	–	–	–	–	–	–	–
CC(=O)OCCCCn1cc(Cn2ccc(=O)n(Cc3cn(CCCCOC(C)=O)nn3)c2=O)nn1	> 100	> 100	> 100	> 100	–	–	> 100	> 100	> 100	> 100	–	–	–	–	–	–	–	–	–
O=C1/C(=C/c2ccccc2)NC(=S)N1CN1CCCCC1	> 100	> 100	> 100	> 100	> 100	–	92.6	> 100	> 100	> 100	–	–	–	–	–	–	–	–	–
COc1cccc(-c2nccc3c(OCc4ccccc4)c(OC)c(OC)cc23)c1	> 100	> 100	> 100	> 100	> 100	> 100	–	–	> 100	> 100	–	–	–	–	–	–	–	–	–
